Tested on: T1, EstD04
T1 construct: C-terminal His6 tag (kept), pET-21a, E. coli BL21(DE3); catalytic triad Ser160/Glu253/His283; gene PCR-amplified with primers from P. nitroreducens homologue CEG18-11055 (homologue, not this protein)
Experiment: p-nitrophenol release at […] nm, Lineweaver-Burk
Type: biochemical, Pseudomonas sp. D01
Conditions: pH 8.0, 40 °C, 50 mM potassium phosphate; 0.25-2 mM substrate

Km: 488 ± 1 µM
SMILES: CCCC(=O)Oc1ccc([N+](=O)[O-])cc1 [p-NPC4, p-nitrophenyl butyrate]
